# Assay results: publication PMC12281475, “Mediator Kinase Inhibitor Selectivity and Activity in Colorectal Cancer” (ACS Chemical Biology, 2025)
# Test system: COLO205 cells
# Assay: Phospho-proteome profiling (CDK-motif antibody enrichment, LC-MS/MS)
# Type: cell-based, human
# Conditions: 6 H
# Text: We phospho-proteome profiled COLO205 cells to identify Mediator kinase substrates following chemical inhibition of Mediator kinase activity. Given the confirmed CDK8/19 selectivity of our compounds in binding and enzymatic activity assays, we employed a pool of antibodies selective for the proline-rich motifs phosphorylated by the CDK family to enrich potential CDK8/19 substrates for LC-MS/MS analysis.
# Adherent COLO205 cells were lysed with a urea buffer, lysates were reduced with DTT, alkylated with iodoacetimide and digested with trypsin-tosylphenylalanyl chloromethyl ketone. Digested peptides were immunoprecipitated using a pool of motif antibodies from Cell Signaling Technologies (US) comprising: phospho-MAPK substrate (PXS*P or S*PXR/K, #2325, RRID:AB_331820), phospho-CDKs substrate ((K/H)-S*P, #2324; RRID:AB_2244779), phospho-PLK binding motif (ST*P, #5243; RRID:AB_10891778) and phospho-tPE motif (T*PE, #3004; RRID:AB_10890649)-of phospho-MAPK (2325), phospho-CDK (2324), phospho-PLK (5243) and phospho-tPE (C3004) motif-recognizing antibodies immobilized onto protein A/G beads. Immunoprecipitated peptides were analyzed using an LTQ-Orbitrap-Velos. Sequences were assigned to the MS/MS spectra and evaluated using SEQUEST 3G and SORCERER 2 (Sage-N Research v4.0, Milpitas). Quantitative data was evaluated and clustered in Spotfire Decision Site (www.spotfire.tibco.com) and normalized using quartile normalization. Functional annotation and pathway analysis used DAVID (https://david.ncifcrf.gov/). […]
# Phospho-proteome analyses
# Adherent COLO205 cells were washed with PBS and cells lysed using urea lysis buffer (9 M Urea, 20 mM HEPES, pH 8.0, 1 mM beta-glycerophosphate, 1 mM sodium vanadate, 2.5 mM sodium pyrophosphate) and stored at -80 °C prior to analysis. The supernatants were reduced with 100 mM DTT for 30 minutes at 55 °C, followed by alkylation with 50 mM iodoacetimide for 15 minutes at ambient temperature in the dark.
# The samples were diluted in 20 mM HEPES, pH 8.0 and digested overnight with 10 ug/mL trypsin-tosylphenylalanyl chloromethyl ketone in 1 mM HCl. Digested peptides were acidified with 1% formic acid and then desalted over 360-mg SEP PAK C18 columns (Waters, UK). Peptides were eluted with 40% acetonitrile in 0.125% formic acid, dried under a vacuum and the lyophilised peptides used for immunoprecipitation.
# A pool of motif antibodies from Cell Signaling Technologies (US) comprising: phospho-MAPK substrate (PXS*P or S*PXR/K, #2325, RRID:AB_331820), phospho-CDKs substrate ((K/H)S*P, #2324; RRID:AB_2244779), phospho-PLK binding motif (ST*P, […]
# RRID:AB_10890649), were immobilised onto protein A/G beads overnight at 4 °C. The lyophilised peptides were resuspended in MOPS buffer (50 mM MOPS, pH 7.2, 10 mM KH2PO4, 50 mM NaCl) and centrifuged for 5 mins at 13,500 rpm in an Eppendorf benchtop microcentrifuge. The supernatants were incubated with the motif-bound beads for 2.5 hours at 4 °C . The beads were harvested by centrifugation at 4000 rpm in an Eppendorf benchtop microcentrifuge for 5 mins, washed with MOPS buffer twice and washed again 5 times with deionised water. The peptides were eluted off the beads using 0.125% formic acid, were desalted and dried under a vacuum. The lyophilised immunoprecipitated peptides were resuspended in 0.125% formic acid and separated on a capillary column packed with Magic C18 AQ reversed-phase resin.
# Peptides were eluted using a 72-minute linear gradient of acetonitrile in 0.125% formic acid delivered at 280nL/min. Samples were analysed using an LTQ-Orbitrap-Velos.
# MS Parameter Settings were: MS Run Time 96 min, MS1 Scan Range (300.0 – 1500.00), Top 20 MS/MS (Min Signal 500, Isolation Width 2.0, Normalized Coll.
# Charge State Rejection Enabled, Charge State 1+ Rejected, Dynamic Exclusion Enabled, Repeat Count 1, Repeat Duration 35.0, Exclusion List Size 500, Exclusion Duration 40.0, Exclusion Mass Width Relative to Mass, Exclusion Mass Width 10ppm). […]
# [1] = MCM4 peptide 69 - fsSppqmhssaipldfdvSspltygtpssr - 98
# [2] = MCM4 peptide 86 - vsSpltygtpssr - 98
# [3] = MDC1 peptide 1645 - SSvkTpkpvepaaSdlepftptdqsvTpeaiaqggqsk - 1682
# [4] = MDC1 peptide 1649 - tpkpvepaasdlepfTptdqsvTpeaiaqggqsk - 1682
# [5] = MED13 peptide 551 - TpStpqsqhfyqmpTpdplvpskpmedr - 578
# [6] = MED13 peptide 551 - tpstpqSqhfyqmpTpdplvpskpmedr - 578
# [7] = MED14 peptide 1106 - agnwpgSpqvsgpSpaar - 1123
# [8] = MED26 peptide 295 - gSvpSpSprpqaldatqvpSplplaqpsTppvr - 328
# [9] = MED26 peptide 295 - gsvpSpsprpqaldatqvpSplplaqpStppvrr - 328
# [10] = MED26 peptide 295 - gsvpspsprpqaldatqvpSplplaqpStppvrr -328
# [11] = MED26 peptide 295 - gsvpspsprpqaldatqvpSplplaqpsTppvr - 328
# [12] = MLLT6 peptide 446 - palsatpvpadeTpetglkek - 466
# [13] = NDRG3 peptide 327 - srthstSSSlgsgeSpfsr - 345
# [14] = NEDD4L peptide 549 - avkdTlSnpqSpqpSpYnSpkpqhk - 593
# [15] = NOP2 peptide 173 - eaaagiqwSeeeTedeeeekevTpesgppk - 202
# [16] = NOSIP peptide 158 - vlpsfwipslTpeak - 172
# [17] = NRIP1 peptide 537 - tsviespstnrtTpvSTpplltssk - 561
# [18] = PBK peptide 18 - ksvlcstpTinipaSpfmqk - 37
# [19] = PBK peptide 19 - svlcStptinipaSpfmqk - 37
# [20] = PBK peptide 19 - svlcsTpTinipaspfmqk - 37
# [21] = PDE12 peptide 200 - eakpgaaepevgvpsslspSSpSsswtetdveer - 233
# [22] = PLEC peptide 4274/4384 - SSsvgsSssypiSpavsr - 4291/4401
# [23] = PLEKHA6 peptide 453 - shsvprspSqgsysr - 467
# [24] = PPP1R18 peptide 192 - wrlSpgeTper - 202
# [25] = PRC1 peptide 487/447 - klntttmsnatanssirpifggtvyhSpvsr - 517/477
# [26] = RACGAP1 peptide 572 - vsllgpvTTpehqllkTpSSSSlsqr - 597
# [27] = RB1 peptide 788 - spykfpsSplripggniYisplkSpykiseglptptk - 824
# [28] = RB1 peptide 792 - fpSSplripggniyiSplkSpYkiseglptpTk - 824
# [29] = SEMA6A peptide 745 - adqhhldltalpTpestptlqqk - 767
# [30] = SH3RF1 peptide 682 - ivtvlpglpTSpdsassacgnssatkpdkdsk - 713
# [31] = SPEN peptide 188 - SrSpnrfdahdpr - 200
# [32] = STAT1 peptide 716 - lqttdnllpmsSpeefdevsr - 736
# [33] = TACC2 peptide 8/2304 - mkkTpekldntpaSpprSpaepndipiak - 36/2332
# [34] = TANC2 peptide 1556 - sqSgspvryqqetsvsqlpgrpksplsSk - 1583
# [35] = TASOR peptide 969 - qrSSdYqfpSSpftdtlk - 986
# [36] = TASOR peptide 971- ssdyqfpSspftdtlk - 986
# [37] = TASOR peptide 971 - ssdyqfpsSpftdtlk - 986
# [38] = TBC1D10B peptide 686 - asagpapgpvvtaeglhpslpSptgnsTplgssk - 718
# [39] = TBC1D23 peptide 505- visfientsTpvdr - 518
# [40] = TFEB peptide 406 - edegppgypeplapghgSpfpslsk - 430
# [41] = TGS1 peptide 290 - vdlvsfpsSpimvdndssgtsdkdhseildgisnik - 325
# [42] = TLE3 peptide 282 - daptspasvassssTpssk - 300
# [43] = TMPO peptide 151 - eqgteSrssTplptisssaentr - 173
# [44] = TNRC18 peptide 1230 - vdSpgrTepcTaaldlgvqlTpeTlveak -1258
# [45] = TUT1 peptide 273 - apespSldsalaSpldpqa - 293l
# [46] = UBR5 peptide 634 - rsTpapkeeekvneeqwslr -653
# [47] = WAC peptide 455 - iStpqtntvpikplisTppvsSqpk - 479
# [48] = ZC3H13 peptide 1206 - lrSpSndsahr - 1216
# [49] = ZMYM4 peptide 1085 - dqgstysgdleseavStphsweeelnhyalk -1115
# [50] = ZMYND8 peptide 278/423 - rislsdmprSpmstnssvhtgsdveqdaekk - 307/452
# [51] = ZNF687 peptide 123 - mqngfgSpepslpgtphSpappSggtwk - 150
smiles,measurement,setting,value
Cn1cc(-c2ccc(-c3cncc(Cl)c3N3CCC4(CCNC4=O)CC3)cc2)cn1 [CCT251545],MEAN MS SIGNAL CMPD 1 6 H,MCM4 peptide 69 - fSsppqmhssaipldfdvSsplTygtpssr - 98,71644
same,CMPD 1/DMSO,[1],0.313
same,MEAN MS SIGNAL CMPD 1 6 H,[1],16633
same,CMPD 1/DMSO,[2],0.545
same,MEAN MS SIGNAL CMPD 1 6 H,[2],23881
same,CMPD 1/DMSO,[3],0.574
same,MEAN MS SIGNAL CMPD 1 6 H,[3],46837
same,CMPD 1/DMSO,[4],0.539
same,MEAN MS SIGNAL CMPD 1 6 H,[4],44678
same,CMPD 1/DMSO,[5],0.359
same,MEAN MS SIGNAL CMPD 1 6 H,[5],9156
same,CMPD 1/DMSO,[6],0.429
same,MEAN MS SIGNAL CMPD 1 6 H,[6],13284
same,CMPD 1/DMSO,[7],0.142
same,MEAN MS SIGNAL CMPD 1 6 H,[7],17584
same,CMPD 1/DMSO,[8],0.215
same,MEAN MS SIGNAL CMPD 1 6 H,[8],56284
same,CMPD 1/DMSO,[9],0.344
same,MEAN MS SIGNAL CMPD 1 6 H,[9],14569
same,CMPD 1/DMSO,[10],0.404
same,MEAN MS SIGNAL CMPD 1 6 H,[10],11273
same,CMPD 1/DMSO,[11],0.324
same,MEAN MS SIGNAL CMPD 1 6 H,[11],51395
same,CMPD 1/DMSO,[12],0.499
same,MEAN MS SIGNAL CMPD 1 6 H,[12],13974
same,CMPD 1/DMSO,[13],0.635
same,MEAN MS SIGNAL CMPD 1 6 H,[13],12713
same,CMPD 1/DMSO,[14],2.036
same,MEAN MS SIGNAL CMPD 1 6 H,[14],126084
same,CMPD 1/DMSO,[15],0.618
same,MEAN MS SIGNAL CMPD 1 6 H,[15],97741
same,CMPD 1/DMSO,[16],0.562
same,MEAN MS SIGNAL CMPD 1 6 H,[16],425932
same,CMPD 1/DMSO,[17],1.857
same,MEAN MS SIGNAL CMPD 1 6 H,[17],157739
same,CMPD 1/DMSO,[18],0.492
same,MEAN MS SIGNAL CMPD 1 6 H,[18],411168
same,CMPD 1/DMSO,[19],0.553
same,MEAN MS SIGNAL CMPD 1 6 H,[19],167495
same,CMPD 1/DMSO,[20],0.535
same,MEAN MS SIGNAL CMPD 1 6 H,[20],63854
same,CMPD 1/DMSO,[21],0.255
same,MEAN MS SIGNAL CMPD 1 6 H,[21],32966
same,CMPD 1/DMSO,[22],0.605
same,MEAN MS SIGNAL CMPD 1 6 H,[22],787072
same,CMPD 1/DMSO,[23],1.818
same,MEAN MS SIGNAL CMPD 1 6 H,[23],361701
same,CMPD 1/DMSO,[24],0.562
same,MEAN MS SIGNAL CMPD 1 6 H,[24],109529
same,CMPD 1/DMSO,[25],0.592
same,MEAN MS SIGNAL CMPD 1 6 H,[25],508312
same,CMPD 1/DMSO,[26],0.557
same,MEAN MS SIGNAL CMPD 1 6 H,[26],38518
same,CMPD 1/DMSO,[27],1.786
same,MEAN MS SIGNAL CMPD 1 6 H,[27],21423
same,CMPD 1/DMSO,[28],1.780
same,MEAN MS SIGNAL CMPD 1 6 H,[28],52675
same,CMPD 1/DMSO,[29],2.360
same,MEAN MS SIGNAL CMPD 1 6 H,[29],62365
same,CMPD 1/DMSO,[30],0.610
same,MEAN MS SIGNAL CMPD 1 6 H,[30],121720
same,CMPD 1/DMSO,[31],2.092
same,MEAN MS SIGNAL CMPD 1 6 H,[31],88908
same,CMPD 1/DMSO,[32],0.357
same,MEAN MS SIGNAL CMPD 1 6 H,[32],223699
same,CMPD 1/DMSO,[33],0.521
same,MEAN MS SIGNAL CMPD 1 6 H,[33],16068
same,CMPD 1/DMSO,[34],3.615
same,MEAN MS SIGNAL CMPD 1 6 H,[34],175022
same,CMPD 1/DMSO,[35],0.437
same,MEAN MS SIGNAL CMPD 1 6 H,[35],47745
same,CMPD 1/DMSO,[36],0.316
same,MEAN MS SIGNAL CMPD 1 6 H,[36],116521
same,CMPD 1/DMSO,[37],0.406
same,MEAN MS SIGNAL CMPD 1 6 H,[37],489288
same,CMPD 1/DMSO,[38],0.515
same,MEAN MS SIGNAL CMPD 1 6 H,[38],63051
same,CMPD 1/DMSO,[39],0.544
same,MEAN MS SIGNAL CMPD 1 6 H,[39],230940
same,CMPD 1/DMSO,[40],0.596
same,MEAN MS SIGNAL CMPD 1 6 H,[40],1352019
same,CMPD 1/DMSO,[41],0.563
same,MEAN MS SIGNAL CMPD 1 6 H,[41],156101
same,CMPD 1/DMSO,[42],2.152
same,MEAN MS SIGNAL CMPD 1 6 H,[42],35775
same,CMPD 1/DMSO,[43],2.220
same,MEAN MS SIGNAL CMPD 1 6 H,[43],19216
same,CMPD 1/DMSO,[44],0.311
same,MEAN MS SIGNAL CMPD 1 6 H,[44],69822
same,CMPD 1/DMSO,[45],2.097
same,MEAN MS SIGNAL CMPD 1 6 H,[45],41046
same,CMPD 1/DMSO,[46],0.456
same,MEAN MS SIGNAL CMPD 1 6 H,[46],139720
same,CMPD 1/DMSO,[47],0.617
same,MEAN MS SIGNAL CMPD 1 6 H,[47],154581
same,CMPD 1/DMSO,[48],1.804
same,MEAN MS SIGNAL CMPD 1 6 H,[48],405976
same,CMPD 1/DMSO,[49],0.475
same,MEAN MS SIGNAL CMPD 1 6 H,[49],46592
same,CMPD 1/DMSO,[50],0.617
same,MEAN MS SIGNAL CMPD 1 6 H,[50],23551
same,CMPD 1/DMSO,[51],0.458
same,MEAN MS SIGNAL CMPD 1 6 H,[51],22069
